Entries after “also recorded” stand apart in the source; their conditions may differ.
Experiments:
[1] = system: EL4 cells; assay: Cell death and caspase-2 processing in EL4 cells; type: cell-based, mouse; conditions: EL4, 8 h
From the text: (§1) We further examined whether HUHS015-derived compounds could activate endogenous caspase-2 in human cells. […] Complementing the CASP2^−/− Jurkat cells with exogenous caspase-2 restored HUHS015-36-induced apoptosis, in which caspase-2 was expectedly processed (Fig. 5A and 5B). We also profiled caspase-2 expression in a panel of 10 mouse tumor cell lines and observed highly variable expression levels (Fig. 5C). […] In B16-F10 (melanoma), LLC1 (Lewis lung carcinoma), MB49 (bladder carcinoma), KPC (pancreatic ductal adenocarcinoma), and 4T1 (mammary carcinoma) cells, caspase-2 was expressed at much lower levels (Fig. 5C). In contrast, EMT6 (mammary carcinoma), EL4 (T lymphoblast), and Hepa1-6 (hepatoma) feature robust caspase-2 expression, much higher than in Jurkat cells (Fig. 5C).
(§2) Figure 5. HUHS015-36 activates endogenous caspase-2 to induce apoptosis in Jurkat cells but not mouse cells. (A and B) HUHS015-36 activates endogenous caspase-2 and induces apoptosis in human Jurkat cells. […] Lysates of 10 mouse cancer cell lines were analyzed by immunoblotting using indicated antibodies. […] ATP cell viability (A and D) is expressed as mean ± s.d. from three technical replicates. […]
(§3) Cell viability was measured by the ATP assay using the CellTiter-Glo® Luminescent Cell Viability Assay kit (Promega).

[2] = system: Hepa1-6 cells; assay: Cell death and caspase-2 processing in Hepa1-6 cells; type: cell-based, mouse; conditions: Hepa1-6, 8 h
From the text: as §1, §2, §3

[3] = target: T1, MBP-CASP2(32-165)-L150P/Y151H (Homo sapiens, UniProt P42575, L150P/Y151H); assay: MicroScale Thermophoresis binding to L150P/Y151H mutant pro-domain; conditions: MST, L150P/Y151H double mutant
T1 construct: cDNAs encoding BID and caspase-2 pro-domain (residues 32–165) were constructed into modified pET vectors; made in house; host or cells: E. coli BL21 (DE3)
T1 sequence (P42575 32-165 L150P/Y151H): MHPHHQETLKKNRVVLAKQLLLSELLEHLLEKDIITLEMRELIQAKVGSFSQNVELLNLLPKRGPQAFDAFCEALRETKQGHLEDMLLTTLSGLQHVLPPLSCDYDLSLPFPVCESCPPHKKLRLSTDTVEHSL
From the text: The contrasting responses of the two caspases to HUHS015 might result from sequence differences in the interdomain linker in the pro-domain. […] However, replacing L150 and Y151 in human caspase-2 with mouse P150 and H151, respectively, abolished HUHS015-induced caspase-2 activation as well as the cell death response (Fig. 4D). […] The importance of L150/Y151 for human caspase-2 activation by HUHS015 indicates these residues or the associated structure are likely involved in binding to the compound agonist.
MicroScale thermophoresis (MST) experiments were carried out at 25°C in the PBST Buffer (PBS with 0.05%, v/v Tween 20) by using a Monolith 2020 (TNG) (MM-208). […] The temperature-induced changes in fluorescence intensity of each sample in the capillary thermophoresis tubes were recorded by the Monolith instrument. The data were analyzed using the program provided by the manufacturer. The binding constant (KD) was calculated directly from the fitting.
Relative fluorescence (%) […]
(A) HUHS015-36 activates caspase-2 independently of PIDDosome. […] A TP-based cell viability is expressed as mean±s.d. from three technical replicates.
Immunoblotting detecting caspase-2 and BID processing is shown. […] A TP-based cell viability is expressed as mean±s.d. from three technical replicates. […]

[4] = system: caspase-2 interdomain linker mutants in HeLa TKO cells; assay: Cell death and caspase-2 activation in HeLa TKO cells expressing caspase-2 linker mutants; type: cell-based
From the text: Figure 4. HUHS015 activates human caspase-2 directly through specific targeting of the interdomain linker of caspase-2. (A) The direct binding between HUHS015-36 and MBP-fused human caspase-2 pro-domain was detected by microscale thermophoresis (MST). MST profiles for raw binding signals and affinity (KD) measurement are shown. The calculated dissociation constant (KD) is expressed as means ± s.d. from two determinations. (B) Sequence alignment of the pro-domain (residues 1–169) of human and mouse caspase-2. CARD domain annotation is shown on top of the sequences. Identical residues are in red background and conserved ones are in red. Numbers of starting residues are indicated on the left. Different residues in the interdomain linker (residues 122–169) were highlighted with green color. (C) HUHS015 activates human but not mouse caspase-2. HeLa TKO cells rescued with human or mouse caspase-2 expression were treated with HUHS015 for the indicated time. ATP-based cell viability and immunoblotting detecting caspase-2 processing are shown. […] ATP-based cell viability in panels (C–E) is expressed as mean ± s.d. from three technical replicates. […] TEXT PRINTED IN THE PICTURE: (A) HUHS015-36: MBP-CASP2(32–165) vs. HUHS015-36: KD (μmol/L): 22.05 ± 6.151; MBP vs. HUHS015-36: KD (μmol/L): Not detected […]

SMILES | caspase-2 processing and cell death [1] | caspase-2 processing and cell death [2] | KD [3] | caspase-2 activation and cell death ([4]; human caspase-2 with L150 and Y151 replaced by mouse P150 and H151, 5 h) | caspase-2 activation and apoptosis ([4]; mouse caspase-2 with P150 and H151 replaced by L150 and Y151, 5 h)
Cc1cccc2nc(-n3nc4c(c3O)CCCC4)[nH]c12 [HUHS015-36] | no caspase-2 processing and cell death were detected | no caspase-2 processing and cell death were detected | Not detected; also recorded: failed to detect confident binding |  | 
Cc1ccc2nc(-n3nc(C)c(Cc4ccccc4)c3O)[nH]c2c1 [HUHS015] |  |  |  | abolished | capable of being activated
